The values that follow come from ChEMBL document CHEMBL1153271, “3,4-Diamino-1,2,5-thiadiazole as potent and selective CXCR2 antagonists” (Bioorg Med Chem Lett, 2009).

Assay [1] deals with T1, C-X-C chemokine receptor type 2 (Homo sapiens, UniProt P25025).
T1 sequence (P25025 whole entry): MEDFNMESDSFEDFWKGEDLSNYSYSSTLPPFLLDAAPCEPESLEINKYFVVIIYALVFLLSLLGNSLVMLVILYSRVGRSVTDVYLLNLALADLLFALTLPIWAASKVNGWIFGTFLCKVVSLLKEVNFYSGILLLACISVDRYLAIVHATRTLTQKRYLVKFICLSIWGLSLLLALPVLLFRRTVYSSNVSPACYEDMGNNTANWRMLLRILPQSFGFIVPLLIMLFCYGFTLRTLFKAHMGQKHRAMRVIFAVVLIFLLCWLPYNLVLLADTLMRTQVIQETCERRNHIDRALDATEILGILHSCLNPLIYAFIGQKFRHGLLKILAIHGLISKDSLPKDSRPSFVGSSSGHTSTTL
The experiment in a line: Displacement of IL8 from CXCR2 receptor.

For assay [2], the target named is T2, C-X-C chemokine receptor type 1 (Homo sapiens, UniProt P25024).
T2 sequence (P25024 whole entry): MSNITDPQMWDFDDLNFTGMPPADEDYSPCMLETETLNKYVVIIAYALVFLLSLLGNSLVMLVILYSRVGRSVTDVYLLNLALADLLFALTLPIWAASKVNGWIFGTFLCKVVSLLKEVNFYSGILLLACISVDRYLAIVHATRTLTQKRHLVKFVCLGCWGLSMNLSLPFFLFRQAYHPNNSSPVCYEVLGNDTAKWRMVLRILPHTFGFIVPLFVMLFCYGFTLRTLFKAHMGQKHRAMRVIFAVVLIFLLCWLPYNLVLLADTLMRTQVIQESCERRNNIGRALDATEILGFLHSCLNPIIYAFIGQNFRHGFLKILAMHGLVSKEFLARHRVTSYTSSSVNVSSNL
Briefly: Displacement of IL8 from CXCR1 receptor.

Assay [3] addresses T1, C-X-C chemokine receptor type 2. The experiment in a line: Displacement of [125I]CXCL1 from CXCR2 receptor in human PMN assessed as myeloperoxidase release. In general terms: Loss of bound radioactivity is the signal in a displacement assay; it reports binding, not function.
Assay [4] has as its target T2, C-X-C chemokine receptor type 1. Briefly: Displacement of [125I]CXCL8 from CXCR1 receptor in human PMN assessed as myeloperoxidase release.

Regarding `CC[C@@H](Nc1nsnc1Nc1cccc(C(=O)N(C)C)c1O)c1cc(C)co1`, the Ki in assay [1] was 2.28 µM. With `Cc1ccc([C@H](Nc2nsnc2Nc2cccc(C(=O)N(C)C)c2O)C(F)(F)F)o1`, the inhibitory constant (Ki) was determined as 0.053 µM in assay [2] and 10 µM in assay [1]. `Cc1ccc([C@H](Nc2nsnc2Nc2cccc(C(=O)N(C)C)c2O)C(C)(C)C)o1` had a Ki in assay [1] of 0.091 µM. In assay [3], the IC50 came out at 0.021 µM.

Turning to `CC[C@@H](Nc1nsnc1Nc1cccc(C(=O)N(C)C)c1O)c1cc(F)cc(F)c1`, the Ki in assay [1] worked out at 4.1 µM. Same read-out and setting: the result for `CN(C)C(=O)c1cccc(Nc2nsnc2N[C@@H](c2ccccc2)C2CC2)c1O` reads 2.03 µM. As to `Cc1ccc([C@H](Nc2nsnc2Nc2cccc(C(=O)N(C)CCC#N)c2O)C(C)(C)C)o1`, the Ki was 0.013 µM in assay [2] and 0.114 µM in assay [1]. `CC(C)c1coc([C@H](Nc2nsnc2Nc2cccc(C(=O)N(C)CCC#N)c2O)C(C)(C)C)c1` returned an inhibition constant Ki in assay [1] of 0.079 µM. In turn, `CN(CCC#N)C(=O)c1cccc(Nc2nsnc2N[C@@H](c2ccco2)C(C)(C)C)c1O` registered a Ki in assay [1] of 0.044 µM. In assay [1], `Cc1ccc([C@H](Nc2nsnc2Nc2cccc(C(=O)N(C)C)c2O)C(C)C)s1` gave a Ki of 1.3 µM.

`CC[C@@H](Nc1nsnc1Nc1ccc(C(F)(F)F)c(C(=O)N(C)C)c1O)c1ccc(C)o1` showed a Ki in assay [1] of 0.749 µM. The same measure, in the same setting: the result for `C[C@H](Nc1nsnc1Nc1cccc(C(=O)N(C)C)c1O)C(C)(C)C` reads 10 µM; that for `CC[C@@H](Nc1nsnc1Nc1cccc(C(=O)N(C)C)c1O)c1ccccc1`, 5.11 µM. Still for that read-out and setting: with `CN(C)C(=O)c1cccc(Nc2nsnc2N[C@@H](c2ccc3c(c2)OCCO3)C(C)(C)C)c1O` the figure was 10 µM. Consider `CN(C)C(=O)c1cccc(Nc2nsnc2N[C@@H](c2cccc(F)c2)C(C)(C)C)c1O`, for which the Ki was 0.078 µM in assay [2] and 1.3 µM in assay [1]. In assay [1], `CN(C)C(=O)c1cccc(Nc2nsnc2N[C@@H](c2ccco2)C(C)(C)C)c1O` came in with a Ki of 0.381 µM. Regarding `Cc1ccc([C@H](Nc2nsnc2Nc2cccc(C(=O)N(C)C)c2O)C(C)C)o1`, the results for the Ki in assay [2] and in assay [1] were 0.015 µM and 2.4 µM, respectively. Moreover, the IC50 came to 3.91 µM in assay [4] and 0.036 µM in assay [3]. In the case of `CN(C)C(=O)c1cccc(Nc2nsnc2NC(c2ccccc2)C(F)(F)F)c1O` (stereo not drawn), the Ki came to 0.036 µM in assay [2] and 4.3 µM in assay [1]. In turn, `CN(C)C(=O)c1cccc(Nc2nsnc2N[C@@H](c2cc3ccccc3o2)C(C)(C)C)c1O` gave a Ki in assay [1] of 2.36 µM. Same read-out and setting: the result for `CC[C@@H](Nc1nsnc1Nc1cccc(C(=O)N(C)C)c1O)c1ccc(C)o1` reads 3 µM. On the same count and under the same terms, the result for `CN(C)C(=O)c1cccc(Nc2nsnc2N[C@@H](c2ccc3c(c2)CCC3)C(C)(C)C)c1O` reads 10 µM. Same read-out and setting: with `Cc1ccc([C@H](Nc2nsnc2Nc2cccc(C(=O)N3CCOCC3)c2O)C(C)(C)C)o1` the figure was 1.27 µM.

For `Cc1ccc([C@H](Nc2nsnc2Nc2ccc(C(F)(F)F)c(C(=O)N(C)C)c2O)C(C)(C)C)o1`, the values for the Ki in assay [2] and in assay [1] were 0.038 µM and 0.168 µM, respectively. Consider `CN(C)C(=O)c1cccc(Nc2nsnc2N[C@@H](c2ccc3c(c2)OCO3)C(C)(C)C)c1O`, for which the Ki in assay [2] was 0.052 µM; in assay [1], 0.33 µM.

In general, Ki refers to the equilibrium dissociation constant of an inhibitor or competing ligand from its target. Low values mean higher affinity, high ones lower affinity. A word on the IC50: it is the concentration that inhibits the measured activity by half.
